According to US20120148595A1, “GABA-LINKED ANTHRACYCLINE-LIPID CONJUGATES” (Luitpold Pharmaceuticals, Inc., priority 2009, published 2012):

System: tumor growth
Test: anti-tumor activity of GABA-linked conjugate compared to the unconjugated anticancer agent (model not given)
Assay type: in vivo
Details: model not specified
From the text: The anti-tumor activity of LOC-GABA-doxorubicin was studied in three tumor models.

CCC=CCC=CCC=CCC=CCC=CCC=CCCC(=O)NCCCC(=O)OC(C(=O)OC1CC2(O)C(OC(=O)c3ccccc3)C3C4(OC(C)=O)COC4CC(O)C3(C)C(=O)C(OC(C)=O)C(=C1C)C2(C)C)C(NC(=O)c1ccccc1)c1ccccc1 (centres unmarked)
anti-tumor activity compared to the unconjugated drug: superior activity in inhibiting tumor growth

CC/C=C\C/C=C\C/C=C\C/C=C\C/C=C\C/C=C\CCC(=O)NCCCC(=O)O[C@H]1C[C@H]2OC[C@@]2(OC(C)=O)[C@H]2[C@H](OC(=O)c3ccccc3)[C@]3(O)C[C@H](OC(=O)[C@H](O)[C@@H](NC(=O)c4ccccc4)c4ccccc4)C(C)=C([C@@H](OC(C)=O)C(=O)[C@]12C)C3(C)C
anti-tumor activity compared to the unconjugated drug: did not show superior anti-tumor activity
